Test results as given in patent US9365506B2, “Compounds and compositions as TLR2 agonists” (NOVARTIS AG, priority 2010, dated 2016).
Like-named read-outs stand apart in the source and are kept apart here.

Target: human TLR2 (Homo sapiens, UniProt O60603)
Experiment: Reporter gene assay: HEK 293 cells stably transfected with human TLR2 and NF-kB-driven luciferase reporter
Conditions: for Emax: HEK293, 7 h, read-out: Hek-TLR2 (% Eff); for EC50: HEK 293 stably transfected with human TLR2 and pNifty-Luciferase, 7 hours incubation, concentration giving 50% of maximal signal; for Hek-TLR2 (% Eff): % Eff relative to Pam3CSK4, HEK 293 human TLR2 NF-kB luciferase
Protocol: As a control assay, normal Hek293 transfected with pNifty-Luc were used. […] Bright-Glo™ Luciferase assay buffer and substrate were supplied by Promega #E263B and #E264B (assay substrate and buffer respectively). 384 well clear-bottom plates were supplied by Greiner bio-one (#789163-G) and were custom bar-coded plates.
Cells were plated at 25,000 cells/well in 384-well plates in a final volume of 50 μl of media. Cells were allowed to adhere to the plates after overnight (18 hours) culture at 37° C. and 5% CO2. Serially diluted experimental and positive control compounds were then dispensed to each well and incubated for 7 hours at 37° C. and 5% CO2. Cells stimulated with DMSO alone also serve as negative controls. After the incubation, 30 μl of the pre-mix assay buffer and substrate buffer were added to each well according to manufacturer's instructions. The luminescence signal was read on a CLIPR machine with an integration time of 20 seconds per plate.

human TLR2, sequence (O60603 21-784): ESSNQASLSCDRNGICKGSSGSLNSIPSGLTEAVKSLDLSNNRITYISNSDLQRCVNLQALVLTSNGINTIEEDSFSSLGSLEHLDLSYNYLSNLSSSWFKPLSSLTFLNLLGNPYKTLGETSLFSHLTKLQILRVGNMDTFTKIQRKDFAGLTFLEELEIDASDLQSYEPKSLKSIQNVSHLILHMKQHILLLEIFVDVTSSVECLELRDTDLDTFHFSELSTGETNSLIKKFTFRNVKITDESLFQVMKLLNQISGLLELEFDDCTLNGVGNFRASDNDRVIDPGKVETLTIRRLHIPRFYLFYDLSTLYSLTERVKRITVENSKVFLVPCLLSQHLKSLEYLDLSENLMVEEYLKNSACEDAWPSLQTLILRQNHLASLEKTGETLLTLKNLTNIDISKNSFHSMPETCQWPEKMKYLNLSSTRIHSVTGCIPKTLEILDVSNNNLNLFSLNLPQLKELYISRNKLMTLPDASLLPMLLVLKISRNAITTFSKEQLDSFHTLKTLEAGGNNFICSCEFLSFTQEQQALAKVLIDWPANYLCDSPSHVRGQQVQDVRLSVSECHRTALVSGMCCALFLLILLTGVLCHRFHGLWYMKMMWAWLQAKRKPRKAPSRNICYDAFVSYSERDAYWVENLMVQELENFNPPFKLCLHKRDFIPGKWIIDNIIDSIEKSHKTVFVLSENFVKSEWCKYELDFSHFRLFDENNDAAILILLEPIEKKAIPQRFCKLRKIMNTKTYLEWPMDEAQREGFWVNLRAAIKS

Row | Compound | Emax [%] | EC50 (Hek-TLR2 μM (EC50)) [nM] | Hek-TLR2 (% Eff) | EC50 (read-out: Hek-TLR2 μM (EC50)) [nM]
1 | CCCCCCCCCCCC(=O)OC[C@H](CSC[C@H](N)C(=O)NCCc1ccc(OCCC(C)C)cc1)OC(=O)CCCCCCCCCCC [Example 44, (R)-3-(((R)-2-amino-3-((4-(isopentyloxy)phenethyl)amino)-3-oxopropyl)thio)propane-1,2-diyl didodecanoate] | 72 | 8170 | – | –
2 | CCCCCCCCCCCC(=O)OC[C@H](CSC[C@H](N)C(=O)NCCOCCOCCOCCC(=O)O)OC(=O)CCCCCCCCCCC [Example 86, (15R,19R)-15-amino-19-(dodecanoyloxy)-14,22-dioxo-4,7,10,21-tetraoxa-17-thia-13-azatritriacontan-1-oic acid] | 84 | 900 | – | –
3 | CCCCCCCCCCCCCCCC(=O)N[C@@H](CSC[C@@H](COC(=O)CCCCCCCCCCC)OC(=O)CCCCCCCCCCC)C(=O)NCCOCCOCCOCCP(=O)(O)O [Example 34, ((14R,18R)-18-(dodecanoyloxy)-13,21-dioxo-14-palmitamido-3,6,9,20-tetraoxa-16-thia-12-azadotriacontyl)phosphonic acid] | 47 | > 100000 | – | –
4 | CCCCCCCCCCCCOC[C@H](CSC[C@H](N)C(=O)N[C@@H](C)C(=O)NCCOCCOCCP(=O)(O)O)OCCCCCCCCCCCC [Example 30, ((11S,14R,18R)-14-amino-18-(dodecyloxy)-11-methyl-10,13-dioxo-3,6,20-trioxa-16-thia-9,12-diazadotriacontyl)phosphonic acid] | 59 | 920 | – | –
5 | (4R,7S,10R,14R)-4-carbamoyl-7-ethyl-6,9,17-trioxo-10-palmitamido-14-(palmitoyloxy)-16-oxa-12-thia-5,8-diazadotriacontan-1-oic acid [Example 47] | – | – | (88%) | 565
6 | CCCCCCCCCCCCOC[C@H](CSC[C@H](N)C(=O)NCCOCCOCCC(F)(F)P(=O)(O)O)NC(=O)CCCCCCCCCCC [Example 35, (12R,16R)-12-amino-16-dodecanamido-1,1-difluoro-11-oxo-4,7,18-trioxa-14-thia-10-azatriacontylphosphonic acid] | 15 | 770 | – | –
7 | CCCCCCCCCCCC(=O)OC[C@H](CSC[C@H](N)C(=O)NCCCS(=O)(=O)O)OC(=O)CCCCCCCCCCC [Example 84, 3-((R)-2-amino-3-(((R)-2,3-bis(dodecanoyloxy)propyl)thio)propanamido)propane-1-sulfonic acid] | 72 | 5560 | – | –
8 | CCCCCCCCCCCCOC[C@H](CSC[C@H](N)C(=O)NCCOCCOCCOCCP(=O)(O)O)OC(=O)NCCCCCCCCCC [Example 90, ((14R,18R)-14-amino-18-((dodecyloxy)methyl)-13,20-dioxo-3,6,9,19-tetraoxa-16-thia-12,21-diazahentriacontyl)phosphonic acid] | 47 | > 100000 | – | –
9 | CCCCCCCCCCCCOC[C@H](CSC[C@H](N)C(=O)NCCOCCOCCOCCP(=O)(O)O)OC(=O)CCCCCCCCCCC [Example 27, ((14R,18R)-14-amino-18-(dodecanoyloxy)-13-oxo-3,6,9,20-tetraoxa-16-thia-12-azadotriacontyl)phosphonic acid] | 77 | 610 | – | –
10 | CCCCCCCCCCCCCCCCOC[C@H](CSC[C@H](N)C(=O)NC1(CO)CC1)NC(=O)CCCCCCCCCCC [Example 11, N—((R)-1-((R)-2-amino-3-(1-(hydroxymethyl)cyclopropylamino)-3-oxopropylthio)-3-(hexadecyloxy)propan-2-yl)dodecanamide] | 3.6 | > 100000 | – | –
11 | (4R,7S,10R,14R)-10-amino-4-carbamoyl-7-ethyl-6,9,17-trioxo-14-(palmitoyloxy)-16-oxa-12-thia-5,8-diazadotriacontan-1-oic acid [Example 48] | – | – | (106%) | 1360
12 | CCCCCCCCCCCC(=O)OC[C@H](CSC[C@H](N)C(=O)NC(C)CCCN(CC)CC)OC(=O)CCCCCCCCCCC (stereo partly drawn) [Example 69, (2R)-3-(((2R)-2-amino-3-((5-(diethylamino)pentan-2-yl)amino)-3-oxopropyl)thio)propane-1,2-diyl didodecanoate] | 118 | 257 | – | –
13 | CCCCCCCCCCCCOC[C@H](CSC[C@H](N)C(=O)NCCOCCOCCOCCC(=O)O)OCCCCCCCCCCCC [Example 32, (15R,19R)-15-amino-19-(dodecyloxy)-14-oxo-4,7,10,21-tetraoxa-17-thia-13-azatritriacontan-1-oic acid] | 78 | 9130 | – | –
14 | CCCCCCCCCCCCOC[C@H](CSC[C@H](N)C(=O)N[C@@H](C)C(=O)NCCOCCOCCP(=O)(O)O)NC(=O)CCCCCCCCCCC [Example 31, ((11S,14R,18R)-14-amino-18-dodecanamido-11-methyl-10,13-dioxo-3,6,20-trioxa-16-thia-9,12-diazadotriacontyl)phosphonic acid] | 35 | 2910 | – | –
15 | CCCCCCCCCCCCOC[C@H](CSC[C@H](N)C(=O)N[C@@H](CO)C(=O)NCCOCCOCCP(=O)(O)O)NC(=O)CCCCCCCCCCC [Example 81, ((11S,14R,18R)-14-amino-18-dodecanamido-11-(hydroxymethyl)-10,13-dioxo-3,6,20-trioxa-16-thia-9,12-diazadotriacontyl)phosphonic acid] | 30 | 1970 | – | –
16 | CCCCCCCCCCCCCCCC(=O)N[C@@H](CSC[C@@H](COC(=O)NCCCCCCCCCC)OC(=O)NCCCCCCCCCC)C(=O)NCCOCCOCCOCCP(=O)(O)O [Example 39, (14R,18R)-18-(decylcarbamoyloxy)-13,21-dioxo-14-palmitamido-3,6,9,20-tetraoxa-16-thia-12,22-diazadotriacontylphosphonic acid] | 92 | 2640 | – | –
17 | CCCCCCCCCCCC(=O)OC[C@H](CSC[C@H](N)C(=O)NCCCCN)OC(=O)CCCCCCCCCCC [Example 57, (R)-3-(((R)-2-amino-3-((4-aminobutyl)amino)-3-oxopropyl)thio)propane-1,2-diyl didodecanoate] | 111 | 1040 | – | –
18 | CCCCCCCCCCCC(=O)OC[C@H](CSC[C@H](N)C(=O)NCCc1ccc(OCCCP(=O)(O)O)cc1)OC(=O)CCCCCCCCCCC [Example 16, 3-(4-(2-((R)-2-amino-3-((R)-2,3-bis(dodecanoyloxy)propylthio)propanamido)ethyl)phenoxy)propylphosphonic acid] | 107 | 410 | – | –
19 | CCCCCCCCCCCC(=O)OC[C@H](CSC[C@H](N)C(=O)NCCOCCOS(=O)(=O)O)OC(=O)CCCCCCCCCCC [Example 91, (R)-3-(((R)-2-amino-3-oxo-3-((2-(2-(sulfooxy)ethoxy)ethyl)amino)propyl)thio)propane-1,2-diyl didodecanoate] | 120 | 61 | – | –
20 | CCCCCCCCCCCCOC[C@H](CSC[C@H](N)C(=O)NCCOCCOCCOCCOCCP(=O)(O)O)NC(=O)CCCCCCCCCCC [Example 79, ((17R,21R)-17-amino-21-dodecanamido-16-oxo-3,6,9,12,23-pentaoxa-19-thia-15-azapentatriacontyl)phosphonic acid] | 20 | 1860 | – | –
21 | CCCCCCCCCCCC(=O)NC[C@H](CSC[C@H](N)C(=O)NC1(CO)CC1)NC(=O)CCCCCCCCCCC [Example 12, N,N′—((R)-3-((R)-2-amino-3-(1-(hydroxymethyl)cyclopropylamino)-3-oxopropylthio)propane-1,2-diyl)didodecanamide] | 3.5 | > 100000 | – | –
22 | CCCCCCCCCCNC(=O)OC[C@H](CSC[C@H](NC(=O)CCCCC)C(=O)NCCOCCOCCOCCP(=O)(O)O)OC(=O)NCCCCCCCCCC [Example 92, ((14R,18R)-18-((decylcarbamoyl)oxy)-14-hexanamido-13,21-dioxo-3,6,9,20-tetraoxa-16-thia-12,22-diazadotriacontyl)phosphonic acid] | 99 | 280 | – | –
23 | CCCCCCCCCCCC(=O)OC[C@H](CSC[C@H](N)C(=O)NCCCn1ccnc1)OC(=O)CCCCCCCCCCC [Example 60, (R)-3-(((R)-3-((3-(1H-imidazol-1-yl)propyl)amino)-2-amino-3-oxopropyl)thio)propane-1,2-diyl didodecanoate] | 119 | 410 | – | –
24 | CCCCCCCCCCCC(=O)OC[C@H](CSC[C@H](N)C(=O)NCCCCCCN)OC(=O)CCCCCCCCCCC [Example 56, (R)-3-(((R)-2-amino-3-((6-aminohexyl)amino)-3-oxopropyl)thio)propane-1,2-diyl didodecanoate] | 107 | 1220 | – | –
25 | CCCCCCCCCCCC(=O)OC[C@H](CSC[C@H](N)C(=O)NC(C)(C)CO)OC(=O)CCCCCCCCCCC [Example 43, (R)-3-(((R)-2-amino-3-((1-hydroxy-2-methylpropan-2-yl)amino)-3-oxopropyl)thio)propane-1,2-diyl didodecanoate] | 54 | 15500 | – | –
26 | CCCCCCCCCCCCCCCC(=O)N[C@@H](CSC[C@@H](COC(=O)CCCCCCCCCCC)OC(=O)CCCCCCCCCCC)C(=O)N[C@@H](CO)C(=O)NCCOCCOCCOCCC(=O)O [Example 89, (15S,18R,22R)-22-(dodecanoyloxy)-15-(hydroxymethyl)-14,17,25-trioxo-18-palmitamido-4,7,10,24-tetraoxa-20-thia-13,16-diazahexatriacontan-1-oic acid] | 104 | 4940 | – | –
27 | CCCCCCCCCCCC(=O)OC[C@H](CSC[C@H](N)C(=O)NC(C)CCC(C)C)OC(=O)CCCCCCCCCCC (stereo partly drawn) [Example 74, (2R)-3-(((2R)-2-amino-3-((5-methylhexan-2-yl)amino)-3-oxopropyl)thio)propane-1,2-diyl didodecanoate] | 105 | 190 | – | –
28 | CCCCCCCCCCCCCC(=O)OC[C@H](CSC[C@H](N)C(=O)NCCOCCOCCOCCP(=O)(O)O)OC(=O)CCCCCCCCCCCCC [Example 25, (14R,18R)-14-amino-13,21-dioxo-18-(tetradecanoyloxy)-3,6,9,20-tetraoxa-16-thia-12-azatetratriacontylphosphonic acid] | 99 | 6.3 | – | –
